Experimental data taken from ChEMBL document CHEMBL1909046, “DrugMatrix in vitro pharmacology data”.

Key:
[1] = biological target: T1, Alpha-1D adrenergic receptor (Homo sapiens, UniProt P25100); format: cell membranes, HEK293, Membrane; settings: hek293; note: in other assays of this panel Not Active means under 50% inhibition at 10 µM
T1 sequence (P25100 whole entry): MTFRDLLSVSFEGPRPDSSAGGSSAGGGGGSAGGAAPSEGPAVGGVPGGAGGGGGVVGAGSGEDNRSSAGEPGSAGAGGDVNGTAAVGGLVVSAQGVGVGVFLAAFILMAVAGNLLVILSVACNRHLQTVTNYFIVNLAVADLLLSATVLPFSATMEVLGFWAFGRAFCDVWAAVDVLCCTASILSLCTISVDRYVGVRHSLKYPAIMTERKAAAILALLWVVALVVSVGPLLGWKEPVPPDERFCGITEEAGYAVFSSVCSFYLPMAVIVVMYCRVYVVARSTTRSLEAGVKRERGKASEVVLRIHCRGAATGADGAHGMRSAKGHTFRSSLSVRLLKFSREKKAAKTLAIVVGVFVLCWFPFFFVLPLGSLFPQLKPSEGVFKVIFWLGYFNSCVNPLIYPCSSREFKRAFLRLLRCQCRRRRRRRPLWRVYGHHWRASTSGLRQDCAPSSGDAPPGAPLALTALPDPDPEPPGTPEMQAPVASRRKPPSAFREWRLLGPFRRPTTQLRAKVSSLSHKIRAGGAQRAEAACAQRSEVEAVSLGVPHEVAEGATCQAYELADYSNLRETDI

[2] = biological target: Beta-2 adrenergic receptor (Homo sapiens, UniProt P07550); test: DRUGMATRIX: Adrenergic beta2 radioligand binding (ligand: [3H] CGP-12177); format: cell membranes, Membrane; settings: cho; Not Active = under 50% inhibition at 10 µM
[3] = biological target: T2, Type-2 angiotensin II receptor (Homo sapiens, UniProt P50052); format: cell-based; settings: cho-k1; note: in other assays of this panel Not Active means under 50% inhibition at 10 µM
T2 sequence (P50052 whole entry): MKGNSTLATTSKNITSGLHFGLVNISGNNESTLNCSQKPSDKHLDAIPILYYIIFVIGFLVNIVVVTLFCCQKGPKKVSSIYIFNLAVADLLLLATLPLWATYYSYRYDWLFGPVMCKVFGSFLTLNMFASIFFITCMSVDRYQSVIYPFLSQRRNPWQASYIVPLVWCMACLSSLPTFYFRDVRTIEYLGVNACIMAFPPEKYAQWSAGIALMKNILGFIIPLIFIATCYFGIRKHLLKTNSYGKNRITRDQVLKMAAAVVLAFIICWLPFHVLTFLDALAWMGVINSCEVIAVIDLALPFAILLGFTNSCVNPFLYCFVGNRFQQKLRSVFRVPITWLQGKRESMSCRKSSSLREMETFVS

Insulin receptor = Insulin receptor (Rattus norvegicus, UniProt P15127); format: cell membranes, Wistar, Liver, Membrane; note: in other assays of this panel Not Active means under 50% inhibition at 10 µM
[4] = biological target: Receptor tyrosine-protein kinase erbB-2 (Homo sapiens, UniProt P04626); test: biochemical; format: cell-based, Insect cells; settings: insect cells;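 note: inhibition of HER2 kinase enzyme activity, measured with Poly(Glu:Tyr) as the phosphorylation substrate; in other assays of this panel Not Active means under 50% inhibition at 10 µM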
Adenosine receptor A3 = biological target: T3, Adenosine receptor A3 (Homo sapiens, UniProt P0DMS8); format: cell membranes, CHO-K1, Membrane
T3 sequence (P0DMS8 whole entry): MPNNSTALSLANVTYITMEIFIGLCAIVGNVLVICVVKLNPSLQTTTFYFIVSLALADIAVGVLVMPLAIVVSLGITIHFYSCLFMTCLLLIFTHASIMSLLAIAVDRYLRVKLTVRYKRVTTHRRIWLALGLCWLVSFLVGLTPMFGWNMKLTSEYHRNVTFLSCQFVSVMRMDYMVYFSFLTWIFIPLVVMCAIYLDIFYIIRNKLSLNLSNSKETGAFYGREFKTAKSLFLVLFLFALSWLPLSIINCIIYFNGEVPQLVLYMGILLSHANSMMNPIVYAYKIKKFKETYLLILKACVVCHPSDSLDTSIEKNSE

Sequence of Insulin receptor (P15127 27-759 limits assumed): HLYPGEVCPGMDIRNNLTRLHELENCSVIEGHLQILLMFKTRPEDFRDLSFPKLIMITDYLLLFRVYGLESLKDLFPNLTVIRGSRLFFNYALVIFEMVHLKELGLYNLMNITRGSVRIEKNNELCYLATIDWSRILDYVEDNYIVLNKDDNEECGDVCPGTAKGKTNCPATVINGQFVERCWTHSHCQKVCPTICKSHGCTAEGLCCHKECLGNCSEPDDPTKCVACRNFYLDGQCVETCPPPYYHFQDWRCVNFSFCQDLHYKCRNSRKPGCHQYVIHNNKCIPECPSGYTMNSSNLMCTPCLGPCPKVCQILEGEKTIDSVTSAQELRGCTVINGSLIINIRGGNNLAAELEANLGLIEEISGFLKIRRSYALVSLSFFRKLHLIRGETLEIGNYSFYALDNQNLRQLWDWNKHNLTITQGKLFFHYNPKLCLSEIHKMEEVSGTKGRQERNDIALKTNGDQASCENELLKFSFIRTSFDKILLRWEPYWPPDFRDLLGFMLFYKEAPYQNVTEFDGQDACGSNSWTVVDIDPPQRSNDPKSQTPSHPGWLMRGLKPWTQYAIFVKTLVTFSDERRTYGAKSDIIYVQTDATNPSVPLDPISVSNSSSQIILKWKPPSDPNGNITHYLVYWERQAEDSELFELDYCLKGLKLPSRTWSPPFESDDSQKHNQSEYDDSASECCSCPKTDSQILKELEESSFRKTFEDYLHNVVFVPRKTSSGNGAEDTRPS
Sequence of Insulin receptor (P15127 764-1383 limits assumed): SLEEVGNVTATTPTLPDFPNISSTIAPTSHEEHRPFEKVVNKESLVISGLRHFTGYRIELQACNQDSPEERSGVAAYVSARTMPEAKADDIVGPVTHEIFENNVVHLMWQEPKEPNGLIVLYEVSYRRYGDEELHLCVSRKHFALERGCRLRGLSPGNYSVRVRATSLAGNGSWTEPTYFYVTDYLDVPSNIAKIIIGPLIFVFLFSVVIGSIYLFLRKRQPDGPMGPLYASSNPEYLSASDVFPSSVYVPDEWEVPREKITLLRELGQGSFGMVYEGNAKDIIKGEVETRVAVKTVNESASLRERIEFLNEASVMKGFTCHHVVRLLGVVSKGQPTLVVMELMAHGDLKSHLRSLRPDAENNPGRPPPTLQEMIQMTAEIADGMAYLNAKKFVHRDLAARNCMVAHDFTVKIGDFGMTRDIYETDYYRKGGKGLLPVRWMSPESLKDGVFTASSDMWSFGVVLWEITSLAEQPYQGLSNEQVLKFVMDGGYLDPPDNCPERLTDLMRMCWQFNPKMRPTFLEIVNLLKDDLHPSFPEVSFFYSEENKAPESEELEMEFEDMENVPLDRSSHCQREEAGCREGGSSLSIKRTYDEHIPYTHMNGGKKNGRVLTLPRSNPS

Compound | IC50 [1] | IC50 [2] | IC50 [3] | IC50 (Insulin receptor) | IC50 [4] | IC50 (Adenosine receptor A3; cho-k1) | IC50 (Adenosine receptor A3; read-out: IC50) | Ki (Adenosine receptor A3; read-out: Ki) | Ki [1] | Ki [2] | Ki [3] | Ki (Insulin receptor) | Ki [4] | Ki (Adenosine receptor A3; cho-k1)
CC1(C)O[C@@H]2C[C@H]3[C@@H]4CCC5=CC(=O)C=C[C@]5(C)[C@@]4(F)[C@@H](O)C[C@]3(C)[C@]2(C(=O)CO)O1 [TRIAMCINOLONE ACETONIDE] | Not Active | Not Active | Not Active | Not Active | Not Active | Not Active | – | – | – | – | – | – | – | –
NS(=O)(=O)c1cc2c(cc1Cl)NC(C(Cl)Cl)NS2(=O)=O (stereo not given) [TRICHLORMETHIAZIDE] | Not Active | Not Active | Not Active | Not Active | Not Active | Not Active | – | – | – | – | – | – | – | –
Cc1c(C)c2c(c(C)c1O)CCC(C)(COc1ccc(CC3SC(=O)NC3=O)cc1)O2 (stereo not given) [TROGLITAZONE] | Not Active | Not Active | Not Active | Not Active | Not Active | – | 5.21 µM | 2.94 µM | – | – | – | – | – | –
N[C@@H]1[C@H]2CN(c3nc4c(cc3F)c(=O)c(C(=O)O)cn4-c3ccc(F)cc3F)C[C@@H]12 [TROVAFLOXACIN] | Not Active | Not Active | Not Active | Not Active | Not Active | Not Active | – | – | – | – | – | – | – | –
N#CC(C#N)=Cc1ccc(O)c(O)c1 [TYRPHOSTIN 23] | Not Active | Not Active | Not Active | Not Active | Not Active | Not Active | – | – | – | – | – | – | – | –
CC[C@]1(O)C[C@H]2CN(CCc3c([nH]c4ccccc34)[C@@](C(=O)OC)(c3cc4c(cc3OC)N(C=O)[C@H]3[C@@](O)(C(=O)OC)[C@H](OC(C)=O)[C@]5(CC)C=CCN6CC[C@]43[C@@H]65)C2)C1 [VINCRISTINE] | Not Active | Not Active | Not Active | Not Active | Not Active | Not Active | – | – | – | – | – | – | – | –
CCCOc1ccccc1-c1nc2nn[nH]c2c(=O)[nH]1 [ZAPRINAST] | Not Active | Not Active | Not Active | Not Active | Not Active | Not Active | – | – | – | – | – | – | – | –
SODIUM NITROPRUSSIDE | Not Active | Not Active | Not Active | Not Active | Not Active | Not Active | – | – | Not Active | Not Active | Not Active | Not Active | Not Active | Not Active
